The source of these data is ChEMBL document CHEMBL1201862, “PubChem BioAssay data set” (2004).

Among the test systems are 786-0; A549; DU-145; HOP-92; HT-29; K562; KM12; LOX IMVI; M14; Malme-3M; NCI-H226; NCI-H460; OVCAR-8; PC-3; SF-268; SK-MEL-5; SNB-19; SNB-75; SW-620; UACC-62.
Experiment in all cases: growth of human tumour cells (NCI), 48 h

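In this assay, cells in 96-well plates receive the compound at five concentrations for 48 hours. Endpoints are linearly interpolated between the surrounding concentrations. The concentration for 50% growth inhibition is given as GI50.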 Active and inactive are the calls of the source. No stated cut-off is given here; in the data, active = GI50 up to about 1.1 µM and inactive = higher. A value given as a limit tells only on which side of the number the result lay.

Consider `COc1cc(C2SC(C)C(=O)N2c2ccc(-c3csc(NS(=O)(=O)c4ccc(Cl)c(OC)c4)n3)cc2)ccc1O` (stereo not given), for which the GI50 in the assay with 786-0 is 67.3 µM (inactive); in the assay on A549, > 100 µM (inactive); with DU-145, > 100 µM (inactive); with HOP-92, 24.4 µM (inactive); in the assay with HT-29 it was > 100 µM (inactive); with K562, 34 µM (inactive). The GI50 was 22.5 µM (inactive) in the assay with KM12; 31.3 µM (inactive) with LOX IMVI; > 100 µM (inactive) with M14; 27.8 µM (inactive) in the assay with Malme-3M; > 100 µM (inactive) in the assay on NCI-H226; > 100 µM (inactive) in the assay with NCI-H460. Further, the GI50 was 29.7 µM (inactive) in the assay on OVCAR-8; > 100 µM (inactive) in the assay with PC-3; 29.4 µM (inactive) in the assay on SF-268; > 100 µM (inactive) in the assay on SK-MEL-5; > 100 µM (inactive) in the assay on SNB-19; 19.7 µM (inactive) in the assay with SNB-75. The figures for the GI50 in the assay with SW-620 and in the assay on UACC-62 were 31.8 µM (inactive) and 25.4 µM (inactive), respectively.
Turning to `Cc1coc2c1CC1(C)C(CCC(O)C1C)C2` (stereo not given), the GI50 in the assay with 786-0, in the assay with A549, in the assay with DU-145, with HOP-92, in the assay on HT-29 and in the assay with K562 was > 100 µM (inactive) each time. The GI50 in the assay with KM12, with LOX IMVI, in the assay with M14, with Malme-3M, in the assay with NCI-H226 and in the assay on NCI-H460 was > 100 µM (inactive) each time. For the same compound, the GI50 in the assay on OVCAR-8, with PC-3, in the assay on SF-268, in the assay on SK-MEL-5, in the assay with SNB-19 and in the assay with SNB-75 was > 100 µM (inactive) in each case. Further, the GI50 with SW-620 and in the assay with UACC-62 was > 100 µM (inactive) each time.
On to `CC(=O)O[C@H]1C#C/C=C\C#CC[C@@H]2C(=O)N[C@@H]12`, for which the GI50 in the assay on 786-0 was 5.42 µM (inactive); with A549, 28.7 µM (inactive); with DU-145 it was 19.2 µM (inactive); in the assay on HOP-92, 46.2 µM (inactive); in the assay with HT-29, > 49.8 µM (inactive); in the assay with K562, > 62.8 µM (inactive). Moreover, the GI50 in the assay on KM12 is > 100 µM (inactive); with LOX IMVI it was 7.78 µM (inactive); in the assay with M14, 43.8 µM (inactive); in the assay with Malme-3M, 22.9 µM (inactive); with NCI-H226 it was 25.7 µM (inactive); in the assay on NCI-H460 it was 0.0382 µM (active). In addition, the GI50 in the assay with OVCAR-8 is 19.8 µM (inactive); in the assay on PC-3, > 100 µM (inactive); with SF-268, 18.6 µM (inactive); with SK-MEL-5, 29.9 µM (inactive); in the assay with SNB-19, 31.3 µM (inactive); with SNB-75, 28.1 µM (inactive). Further, the GI50 is > 51.3 µM (inactive) in the assay with SW-620 and 26.4 µM (inactive) in the assay with UACC-62.
Regarding `CC1(C)CCC[C@](C)([C@H]2CC[C@]3(C)[C@@H]2[C@H](O)C[C@@H]2[C@@]4(C)CC[C@H](O)C(C)(C)[C@@H]4[C@H](O)C[C@]23C)O1`, the GI50 in the assay with 786-0 was 19 µM (inactive); with A549, 9.68 µM (inactive); in the assay with DU-145 it was 15.8 µM (inactive); with HOP-92 it was 13.6 µM (inactive); in the assay on HT-29, 3.55 µM (inactive); with K562, 5.48 µM (inactive). The GI50 in the assay on KM12 was 11.1 µM (inactive); with LOX IMVI, 17.5 µM (inactive); in the assay with M14 it was 14.9 µM (inactive); in the assay on Malme-3M, 19.1 µM (inactive); in the assay with NCI-H226, 15.7 µM (inactive); in the assay with NCI-H460 it was 10.1 µM (inactive). Besides, the GI50 with OVCAR-8 was 16.9 µM (inactive); in the assay with PC-3, 10.9 µM (inactive); in the assay on SF-268, 13.8 µM (inactive); in the assay with SK-MEL-5, 3.64 µM (inactive); with SNB-19, 11.5 µM (inactive); with SNB-75, 10.7 µM (inactive). The values for the GI50 with SW-620 and in the assay with UACC-62 were 13.2 µM (inactive) and 13.3 µM (inactive), respectively.
Turning to `CNc1ccc(C(=O)CC(O)CCC(C)C2OC(=O)CC(O)CC(=O)CC(O)CC(O)CC(O)CC(O)CC3(O)CC(O)C(C(=O)N4CCOCC4)C(CC(OC4OC(C)C(O)C(N)C4O)\C=C/C=C\C=C/C=C/C=C/C=C\C=C/C2C)O3)cc1` (stereo not given), the GI50 is 0.325 µM (active) in the assay with 786-0; 0.275 µM (active) in the assay with A549; 0.527 µM (active) in the assay on DU-145; 0.281 µM (active) in the assay on HOP-92; 0.232 µM (active) in the assay with HT-29; 0.378 µM (active) in the assay on K562. Besides, the GI50 with KM12 was 0.319 µM (active); in the assay on LOX IMVI, 0.243 µM (active); in the assay with M14, 0.328 µM (active); in the assay on Malme-3M it was 0.137 µM (active); in the assay with NCI-H226, 0.277 µM (active); with NCI-H460, 0.27 µM (active). In addition, the GI50 was 0.376 µM (active) in the assay on OVCAR-8; 0.355 µM (active) with PC-3; 0.218 µM (active) in the assay with SF-268; 0.181 µM (active) in the assay on SK-MEL-5; 0.365 µM (active) with SNB-19; 0.409 µM (active) in the assay on SNB-75. Moreover, the GI50 with SW-620 was 0.475 µM (active); in the assay on UACC-62 it was 0.258 µM (active).
On to `CN(C)c1ccc(/C=C(\NC(=O)c2ccccc2)c2nn(C)c(=O)o2)cc1`, for which the GI50 was 41.5 µM (inactive) in the assay on 786-0; > 100 µM (inactive) in the assay on A549; > 100 µM (inactive) with DU-145; > 100 µM (inactive) in the assay on HOP-92; 90.8 µM (inactive) in the assay with HT-29; > 100 µM (inactive) in the assay on K562. The GI50 with KM12 was 37.6 µM (inactive); with LOX IMVI it was 60.1 µM (inactive); in the assay on M14, 46 µM (inactive); with Malme-3M it was 78.2 µM (inactive); in the assay on NCI-H226, 23.4 µM (inactive); in the assay on NCI-H460 it was 44.4 µM (inactive). For the same compound, the GI50 in the assay with OVCAR-8 was 26.7 µM (inactive); in the assay on PC-3 it was > 100 µM (inactive); in the assay on SF-268 it was 44.1 µM (inactive); with SK-MEL-5 it was 26.3 µM (inactive); with SNB-19, 28.1 µM (inactive); with SNB-75, 16.9 µM (inactive). Moreover, the GI50 with SW-620 was 52 µM (inactive); in the assay on UACC-62 it was > 100 µM (inactive).
For `CC(=O)OC1CC[C@@]2(C)C(CC[C@]3(C)C2CC=C2[C@@H]4CC(C)(C)CCC4(C)CCC23C)[C@@]1(C)C(=O)O` (stereo not given in full), the GI50 was 17.6 µM (inactive) in the assay on 786-0; 7.41 µM (inactive) in the assay with A549; 16.6 µM (inactive) in the assay on DU-145; 20.4 µM (inactive) in the assay with HOP-92; 15.9 µM (inactive) in the assay on HT-29; 19.2 µM (inactive) in the assay with K562. The GI50 is 12 µM (inactive) in the assay with KM12; 13.8 µM (inactive) with LOX IMVI; 19.9 µM (inactive) with M14; 21.4 µM (inactive) with Malme-3M; 22 µM (inactive) in the assay with NCI-H226; 10.7 µM (inactive) with NCI-H460. Moreover, the GI50 was 14 µM (inactive) with OVCAR-8; 6.61 µM (inactive) in the assay on PC-3; 18.2 µM (inactive) with SF-268; 16.9 µM (inactive) with SK-MEL-5; 18.9 µM (inactive) in the assay on SNB-19; 23 µM (inactive) with SNB-75. Further, the GI50 in the assay on SW-620 is 13.5 µM (inactive); in the assay with UACC-62 it was 15.4 µM (inactive).
Consider `CCOC(=O)C1=C(C)N(CC(C)C)C2(O)C(OC)CC(=O)C3C(=O)N(c4ccccc4)C(=O)C132` (stereo not given), for which the GI50 in the assay with 786-0 is 66.4 µM (inactive); with A549 it was 43.4 µM (inactive); with DU-145, 52 µM (inactive); with HOP-92, 45.6 µM (inactive); in the assay with HT-29, 20.7 µM (inactive); in the assay with K562, 31.9 µM (inactive). For the same compound, the GI50 in the assay on KM12 is 25.9 µM (inactive); in the assay with LOX IMVI it was 31.3 µM (inactive); with M14, 38.3 µM (inactive); with Malme-3M it was 31.5 µM (inactive); with NCI-H226, 26.1 µM (inactive); with NCI-H460, 36.5 µM (inactive). For the same compound, the GI50 in the assay on OVCAR-8 is 26.1 µM (inactive); in the assay with PC-3, 34 µM (inactive); in the assay on SF-268, 60.1 µM (inactive); in the assay on SK-MEL-5 it was 20.1 µM (inactive); with SNB-19 it was 42.4 µM (inactive); in the assay on SNB-75 it was 20 µM (inactive). The values for the GI50 with SW-620 and in the assay on UACC-62 were 34 µM (inactive) and 19.3 µM (inactive), respectively.
With `COC(=O)c1ccc(O)c2nc3c(C=O)c(O)cc(O)c3nc12` [LOMOFUNGIN], the GI50 in the assay with 786-0 was 1.73 µM (inactive); with A549, 0.396 µM (active); in the assay on DU-145 it was 0.685 µM (active); in the assay with HOP-92, 1.2 µM (inactive); with HT-29, 0.458 µM (active); in the assay with K562, 0.0847 µM (active). The GI50 in the assay on KM12 was 1.3 µM (inactive); with LOX IMVI, 0.269 µM (active); in the assay with M14, 0.592 µM (active); in the assay on Malme-3M, 2.07 µM (inactive); with NCI-H226, 0.542 µM (active); in the assay on NCI-H460, 0.413 µM (active). Also, the GI50 in the assay with OVCAR-8 is 0.0439 µM (active); in the assay with PC-3 it was 0.661 µM (active); in the assay on SF-268, 0.428 µM (active); with SK-MEL-5, 0.953 µM (active); in the assay on SNB-19, 1.9 µM (inactive); with SNB-75 it was 1.78 µM (inactive). Moreover, the GI50 in the assay on SW-620 is 0.641 µM (active); in the assay with UACC-62, 1.27 µM (inactive).
Turning to `C[C@]12[C@@H]3CC[C@H]1[C@@H](OC(=O)Nc1cc([N+](=O)[O-])cc([N+](=O)[O-])c1)C(=O)N2CC3`, the GI50 with 786-0, in the assay with A549, in the assay with DU-145, with HOP-92, with HT-29 and in the assay with K562 was > 100 µM (inactive) in each case. The GI50 in the assay with KM12, with LOX IMVI, with M14, in the assay with Malme-3M, in the assay on NCI-H226 and with NCI-H460 was > 100 µM (inactive) in each case. Further, the GI50 is > 100 µM (inactive) with OVCAR-8; > 100 µM (inactive) with PC-3; > 100 µM (inactive) in the assay on SF-268; > 100 µM (inactive) in the assay with SK-MEL-5; > 100 µM (inactive) in the assay with SNB-19; 19.6 µM (inactive) in the assay on SNB-75. In addition, the GI50 in the assay with SW-620 and in the assay with UACC-62 was > 100 µM (inactive) throughout.
